Measured values as given in ChEMBL document CHEMBL1201862, “PubChem BioAssay data set” (2004).
Activity calls are given as the source filed them.

Key:
[1] = biological target: T1, Eukaryotic translation initiation factor 2-alpha kinase 3 (Homo sapiens, UniProt Q9NZJ5); experiment: Dose response cell-based high-throughput screening assay to measure PERK inhibition. [Related pubchem assays: 1416 ]; assay type: functional
T1 sequence (Q9NZJ5 whole entry): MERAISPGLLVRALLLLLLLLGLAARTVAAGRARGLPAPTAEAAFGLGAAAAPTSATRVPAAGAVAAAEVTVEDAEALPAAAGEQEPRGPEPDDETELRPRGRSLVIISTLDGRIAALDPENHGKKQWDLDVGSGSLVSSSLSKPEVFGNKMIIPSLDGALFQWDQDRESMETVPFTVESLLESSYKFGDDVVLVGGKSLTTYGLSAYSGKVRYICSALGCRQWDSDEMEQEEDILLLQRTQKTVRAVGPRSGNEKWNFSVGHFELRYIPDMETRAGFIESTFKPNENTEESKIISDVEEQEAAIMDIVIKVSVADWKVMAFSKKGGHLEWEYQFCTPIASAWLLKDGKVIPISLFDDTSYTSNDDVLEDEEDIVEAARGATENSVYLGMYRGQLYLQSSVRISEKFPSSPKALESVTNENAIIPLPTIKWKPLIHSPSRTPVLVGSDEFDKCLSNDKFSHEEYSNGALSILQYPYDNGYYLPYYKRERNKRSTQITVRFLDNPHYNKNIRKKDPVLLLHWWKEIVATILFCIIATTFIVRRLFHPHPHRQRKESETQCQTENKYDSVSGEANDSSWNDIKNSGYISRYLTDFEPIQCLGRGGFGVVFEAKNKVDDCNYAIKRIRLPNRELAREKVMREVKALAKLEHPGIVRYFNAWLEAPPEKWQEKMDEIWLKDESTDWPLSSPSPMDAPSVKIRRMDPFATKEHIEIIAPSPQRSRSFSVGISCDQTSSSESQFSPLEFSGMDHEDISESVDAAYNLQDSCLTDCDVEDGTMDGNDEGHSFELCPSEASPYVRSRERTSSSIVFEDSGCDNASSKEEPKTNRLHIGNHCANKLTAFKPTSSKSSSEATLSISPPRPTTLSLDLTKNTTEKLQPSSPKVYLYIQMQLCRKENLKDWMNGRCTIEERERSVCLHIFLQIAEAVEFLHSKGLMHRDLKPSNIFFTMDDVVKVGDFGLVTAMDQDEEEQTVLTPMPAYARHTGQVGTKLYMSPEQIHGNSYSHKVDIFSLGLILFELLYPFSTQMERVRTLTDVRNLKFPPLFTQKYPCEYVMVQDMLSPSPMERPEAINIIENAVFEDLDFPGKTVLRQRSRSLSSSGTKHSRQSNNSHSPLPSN

[2] = biological target: T1, Eukaryotic translation initiation factor 2-alpha kinase 3; experiment: Counterscreen assay for PERK inhibitors: Dose response cell-based high throughput screening assay to measure inhibition of PERK at 6 hours. [Related pubchem assays: 1522, 1416 ]; assay type: functional
Protein RecA = biological target: T2, Protein RecA (Mycobacterium tuberculosis, UniProt P9WHJ3); experiment: Fluorescence Cell-Free Homogeneous Dose Retest to Identify Inhibitors of RecA-Intein Splicing Activity. [Related pubchem assays (depositor defined):AID2097, AID2223, AID489010, AID492950]; assay type: functional
T2 sequence (P9WHJ3 whole entry): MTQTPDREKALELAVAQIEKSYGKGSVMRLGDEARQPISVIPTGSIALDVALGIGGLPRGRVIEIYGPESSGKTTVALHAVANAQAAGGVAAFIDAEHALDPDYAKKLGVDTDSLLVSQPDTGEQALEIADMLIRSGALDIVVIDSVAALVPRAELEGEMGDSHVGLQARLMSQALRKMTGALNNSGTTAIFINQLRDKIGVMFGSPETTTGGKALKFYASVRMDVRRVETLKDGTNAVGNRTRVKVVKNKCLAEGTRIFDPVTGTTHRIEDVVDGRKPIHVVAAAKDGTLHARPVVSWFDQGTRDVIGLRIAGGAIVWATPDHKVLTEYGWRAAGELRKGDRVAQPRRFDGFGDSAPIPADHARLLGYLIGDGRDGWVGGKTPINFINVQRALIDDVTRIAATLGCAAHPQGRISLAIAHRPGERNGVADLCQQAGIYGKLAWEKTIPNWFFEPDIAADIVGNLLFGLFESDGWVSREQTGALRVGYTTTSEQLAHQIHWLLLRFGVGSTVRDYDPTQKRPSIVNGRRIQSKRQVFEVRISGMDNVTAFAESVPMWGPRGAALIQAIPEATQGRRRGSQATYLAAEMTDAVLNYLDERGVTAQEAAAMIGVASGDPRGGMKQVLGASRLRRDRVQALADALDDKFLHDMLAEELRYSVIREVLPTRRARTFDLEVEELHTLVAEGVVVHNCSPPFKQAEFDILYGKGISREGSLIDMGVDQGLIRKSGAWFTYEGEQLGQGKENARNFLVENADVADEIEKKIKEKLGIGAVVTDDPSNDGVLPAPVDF

HEK293 [3] = experiment: cells; assay type: functional, cell-based; settings: Homo sapiens
[4] = biological target: T3, Replicative DNA helicase DnaB (Mycobacterium tuberculosis, UniProt P9WMR3); experiment: DnaB intein splicing inhibitors, dose response, biochemical, cell-free fluorescence (AID 449749); assay type: functional
T3 sequence (P9WMR3 whole entry): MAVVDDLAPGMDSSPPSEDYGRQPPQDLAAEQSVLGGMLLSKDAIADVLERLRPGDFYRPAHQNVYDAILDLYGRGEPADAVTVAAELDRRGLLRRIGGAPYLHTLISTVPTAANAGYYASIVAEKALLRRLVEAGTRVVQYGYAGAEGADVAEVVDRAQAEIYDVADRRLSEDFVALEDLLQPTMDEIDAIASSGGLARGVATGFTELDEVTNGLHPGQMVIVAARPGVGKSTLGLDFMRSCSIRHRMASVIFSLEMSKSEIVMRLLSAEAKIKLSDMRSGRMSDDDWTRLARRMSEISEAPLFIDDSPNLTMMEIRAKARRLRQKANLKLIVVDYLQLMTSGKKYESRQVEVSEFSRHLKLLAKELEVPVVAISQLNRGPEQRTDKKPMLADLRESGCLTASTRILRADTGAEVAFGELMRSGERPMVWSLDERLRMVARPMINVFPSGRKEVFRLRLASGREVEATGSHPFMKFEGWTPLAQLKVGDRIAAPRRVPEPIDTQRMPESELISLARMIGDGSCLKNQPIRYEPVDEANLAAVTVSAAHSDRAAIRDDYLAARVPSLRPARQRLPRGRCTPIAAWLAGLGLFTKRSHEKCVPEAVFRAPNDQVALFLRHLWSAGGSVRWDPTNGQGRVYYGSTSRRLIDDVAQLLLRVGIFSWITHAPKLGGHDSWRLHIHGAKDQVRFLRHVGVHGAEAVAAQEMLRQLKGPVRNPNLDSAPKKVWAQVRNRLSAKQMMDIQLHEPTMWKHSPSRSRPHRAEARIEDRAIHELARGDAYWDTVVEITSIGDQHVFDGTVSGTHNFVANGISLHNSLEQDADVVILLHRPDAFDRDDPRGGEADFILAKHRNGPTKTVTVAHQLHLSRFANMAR

[5] = biological target: Nucleotide-binding oligomerization domain-containing protein 2 (Homo sapiens, UniProt Q9HC29); experiment: NOD2 signaling inhibitors, cell-based, luminescence, uHTS, HEK293 (AID 1566); assay type: functional
Nucleotide-binding oligomerization domain-containing protein 2, sequence (Q9HC29 whole entry, the tested form may be a part): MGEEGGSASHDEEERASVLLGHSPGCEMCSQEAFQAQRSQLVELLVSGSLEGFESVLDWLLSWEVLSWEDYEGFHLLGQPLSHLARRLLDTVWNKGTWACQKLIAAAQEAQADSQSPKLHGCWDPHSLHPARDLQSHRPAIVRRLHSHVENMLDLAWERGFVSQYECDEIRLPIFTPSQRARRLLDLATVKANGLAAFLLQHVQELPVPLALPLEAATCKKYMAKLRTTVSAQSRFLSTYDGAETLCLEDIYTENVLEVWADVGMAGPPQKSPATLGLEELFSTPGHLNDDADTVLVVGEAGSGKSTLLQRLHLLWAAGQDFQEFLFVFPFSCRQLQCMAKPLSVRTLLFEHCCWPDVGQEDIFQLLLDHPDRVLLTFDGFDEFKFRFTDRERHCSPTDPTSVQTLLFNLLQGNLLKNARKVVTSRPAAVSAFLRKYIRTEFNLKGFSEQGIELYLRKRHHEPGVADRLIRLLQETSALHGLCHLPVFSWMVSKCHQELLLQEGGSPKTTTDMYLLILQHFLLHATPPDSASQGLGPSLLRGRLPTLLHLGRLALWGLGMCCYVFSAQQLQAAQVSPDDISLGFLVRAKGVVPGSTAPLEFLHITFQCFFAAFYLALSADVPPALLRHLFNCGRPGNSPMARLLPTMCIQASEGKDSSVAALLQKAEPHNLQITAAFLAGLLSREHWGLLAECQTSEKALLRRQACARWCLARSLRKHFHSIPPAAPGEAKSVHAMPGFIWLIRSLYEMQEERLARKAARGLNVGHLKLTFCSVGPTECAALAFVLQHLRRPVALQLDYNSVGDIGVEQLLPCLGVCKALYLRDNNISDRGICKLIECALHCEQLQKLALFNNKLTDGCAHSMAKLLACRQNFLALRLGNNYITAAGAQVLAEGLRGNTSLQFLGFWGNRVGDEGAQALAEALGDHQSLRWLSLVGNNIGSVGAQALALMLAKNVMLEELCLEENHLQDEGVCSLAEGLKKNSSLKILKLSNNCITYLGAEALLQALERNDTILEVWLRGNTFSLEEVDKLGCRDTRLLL

HEK293 [6] = experiment: cells; assay type: functional, cell-based; settings: Homo sapiens; remark: listed apart in the source
[7] = microbe, parasite or virus in culture; assay type: functional; settings: Mycobacterium tuberculosis
HEK293 [8] = experiment: cells; assay type: functional, cell-based; settings: Homo sapiens; remark: listed apart in the source
HEK293 [9] = experiment: NOD2 signaling inhibitors in MDP-stimulated cells, cell-based, uHTS, luminescence (AID 2001); assay type: functional; settings: Homo sapiens
HEK293 [10] = experiment: NOD1 signaling inhibitors, primary screen, cell-based, luminescence, uHTS (AID 1578); assay type: functional; settings: Homo sapiens
[11] = biological target: DNA dC->dU-editing enzyme APOBEC-3A (Homo sapiens, UniProt P31941); experiment: APOBEC3A DNA deaminase inhibitors, dose response, biochemical (AID 504722); assay type: functional
DNA dC->dU-editing enzyme APOBEC-3A, sequence (P31941 whole entry): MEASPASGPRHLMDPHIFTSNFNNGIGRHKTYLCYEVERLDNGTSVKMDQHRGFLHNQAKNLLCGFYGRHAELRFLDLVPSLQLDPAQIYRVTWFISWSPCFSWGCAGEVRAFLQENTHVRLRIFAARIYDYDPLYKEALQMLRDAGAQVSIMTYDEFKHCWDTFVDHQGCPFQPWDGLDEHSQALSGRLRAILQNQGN

[12] = biological target: DNA dC->dU-editing enzyme APOBEC-3G (Homo sapiens, UniProt Q9HC16); experiment: Dose Response confirmation of small molecule APOBEC3G DNA Deaminase Inhibitors via a fluorescence-based single-stranded DNA deaminase assay. [Related pubchem assays (depositor defined):AID493012, AID493028]; assay type: functional
DNA dC->dU-editing enzyme APOBEC-3G, sequence (Q9HC16 whole entry): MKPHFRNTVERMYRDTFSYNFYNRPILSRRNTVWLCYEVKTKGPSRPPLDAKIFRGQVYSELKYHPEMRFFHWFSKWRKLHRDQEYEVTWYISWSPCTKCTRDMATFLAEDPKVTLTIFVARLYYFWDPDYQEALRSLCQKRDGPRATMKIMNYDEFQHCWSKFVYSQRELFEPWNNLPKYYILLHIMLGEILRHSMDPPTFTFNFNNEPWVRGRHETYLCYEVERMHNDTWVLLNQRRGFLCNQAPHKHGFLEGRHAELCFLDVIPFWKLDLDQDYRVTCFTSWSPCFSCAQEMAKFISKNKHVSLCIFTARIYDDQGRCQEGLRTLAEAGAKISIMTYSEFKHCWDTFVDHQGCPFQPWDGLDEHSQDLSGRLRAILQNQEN

[13] = biological target: T4, Small ubiquitin-related modifier 1 (Homo sapiens, UniProt P63165); experiment: inhibitors of SUMO1 partner interactions, dose response, biochemical, FRET (AID 624383); assay type: functional; settings: read-out: IC50_Mean
T4 sequence (P63165 whole entry): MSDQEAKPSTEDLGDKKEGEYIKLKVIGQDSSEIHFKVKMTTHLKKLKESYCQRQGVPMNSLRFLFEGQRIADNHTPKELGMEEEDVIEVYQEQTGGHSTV

[14] = biological target: T5, Voltage-gated N-type calcium channel alpha-1B subunit/Amyloid beta A4 precursor protein-binding family A member 1 (Homo sapiens, UniProt Q00975+Q02410); assay type: protein assay
T5 sequence (Q00975 whole entry): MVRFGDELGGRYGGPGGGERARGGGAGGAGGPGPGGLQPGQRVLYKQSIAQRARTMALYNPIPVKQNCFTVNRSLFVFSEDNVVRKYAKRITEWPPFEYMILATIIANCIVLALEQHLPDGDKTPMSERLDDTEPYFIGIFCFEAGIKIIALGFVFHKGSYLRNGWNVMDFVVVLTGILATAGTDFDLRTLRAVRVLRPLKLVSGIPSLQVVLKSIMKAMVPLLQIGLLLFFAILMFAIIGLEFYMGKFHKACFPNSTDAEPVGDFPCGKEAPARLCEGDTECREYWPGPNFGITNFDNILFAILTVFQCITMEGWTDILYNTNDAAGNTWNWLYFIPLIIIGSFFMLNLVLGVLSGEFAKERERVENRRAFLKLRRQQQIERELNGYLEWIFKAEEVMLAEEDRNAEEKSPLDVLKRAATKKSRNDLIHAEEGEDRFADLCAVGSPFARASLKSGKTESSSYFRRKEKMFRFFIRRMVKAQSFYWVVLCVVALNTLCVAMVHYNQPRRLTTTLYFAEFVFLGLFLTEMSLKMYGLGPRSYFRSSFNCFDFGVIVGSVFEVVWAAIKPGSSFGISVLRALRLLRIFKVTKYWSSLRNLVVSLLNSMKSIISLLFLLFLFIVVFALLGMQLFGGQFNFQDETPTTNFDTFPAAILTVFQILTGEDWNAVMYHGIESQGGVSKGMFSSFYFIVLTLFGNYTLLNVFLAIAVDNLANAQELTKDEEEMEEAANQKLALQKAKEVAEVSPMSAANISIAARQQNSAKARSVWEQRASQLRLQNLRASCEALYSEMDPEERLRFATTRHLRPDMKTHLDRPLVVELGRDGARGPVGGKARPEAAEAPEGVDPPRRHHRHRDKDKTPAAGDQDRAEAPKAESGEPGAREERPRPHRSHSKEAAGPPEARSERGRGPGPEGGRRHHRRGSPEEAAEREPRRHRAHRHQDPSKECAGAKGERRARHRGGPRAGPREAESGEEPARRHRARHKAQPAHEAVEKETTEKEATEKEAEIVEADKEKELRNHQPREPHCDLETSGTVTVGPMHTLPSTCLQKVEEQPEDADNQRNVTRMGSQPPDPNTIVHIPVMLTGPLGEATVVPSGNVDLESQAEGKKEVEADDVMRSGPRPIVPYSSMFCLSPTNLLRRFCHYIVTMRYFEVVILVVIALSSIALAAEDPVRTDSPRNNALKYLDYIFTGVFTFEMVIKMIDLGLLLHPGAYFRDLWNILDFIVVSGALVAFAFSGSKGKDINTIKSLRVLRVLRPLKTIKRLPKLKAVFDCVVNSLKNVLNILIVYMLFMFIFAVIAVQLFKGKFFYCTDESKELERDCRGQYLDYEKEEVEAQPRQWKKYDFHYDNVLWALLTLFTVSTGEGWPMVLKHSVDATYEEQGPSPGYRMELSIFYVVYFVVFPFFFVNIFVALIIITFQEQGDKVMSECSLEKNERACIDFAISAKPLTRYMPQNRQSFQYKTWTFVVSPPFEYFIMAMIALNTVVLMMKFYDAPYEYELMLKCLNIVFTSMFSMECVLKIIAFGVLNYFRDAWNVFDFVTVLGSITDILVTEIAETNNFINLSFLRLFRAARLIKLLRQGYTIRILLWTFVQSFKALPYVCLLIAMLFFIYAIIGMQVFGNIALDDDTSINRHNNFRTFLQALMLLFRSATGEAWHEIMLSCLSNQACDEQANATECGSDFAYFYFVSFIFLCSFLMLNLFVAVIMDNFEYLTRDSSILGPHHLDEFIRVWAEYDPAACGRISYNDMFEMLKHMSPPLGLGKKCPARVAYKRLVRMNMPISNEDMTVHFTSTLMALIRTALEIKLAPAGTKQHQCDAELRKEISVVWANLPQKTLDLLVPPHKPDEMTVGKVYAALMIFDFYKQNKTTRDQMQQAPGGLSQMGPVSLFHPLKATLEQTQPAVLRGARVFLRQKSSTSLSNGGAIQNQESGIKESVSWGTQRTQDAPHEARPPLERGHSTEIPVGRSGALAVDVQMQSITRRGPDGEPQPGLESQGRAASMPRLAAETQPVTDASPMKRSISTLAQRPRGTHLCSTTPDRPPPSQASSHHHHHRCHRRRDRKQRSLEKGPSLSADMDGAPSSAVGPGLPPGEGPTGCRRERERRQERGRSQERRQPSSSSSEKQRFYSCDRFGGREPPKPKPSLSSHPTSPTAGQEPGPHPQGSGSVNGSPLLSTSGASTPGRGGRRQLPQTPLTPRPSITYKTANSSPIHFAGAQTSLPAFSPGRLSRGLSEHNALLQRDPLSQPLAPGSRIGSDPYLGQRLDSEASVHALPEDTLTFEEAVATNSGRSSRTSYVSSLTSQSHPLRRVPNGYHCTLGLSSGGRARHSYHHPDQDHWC
T5 sequence (Q02410 whole entry): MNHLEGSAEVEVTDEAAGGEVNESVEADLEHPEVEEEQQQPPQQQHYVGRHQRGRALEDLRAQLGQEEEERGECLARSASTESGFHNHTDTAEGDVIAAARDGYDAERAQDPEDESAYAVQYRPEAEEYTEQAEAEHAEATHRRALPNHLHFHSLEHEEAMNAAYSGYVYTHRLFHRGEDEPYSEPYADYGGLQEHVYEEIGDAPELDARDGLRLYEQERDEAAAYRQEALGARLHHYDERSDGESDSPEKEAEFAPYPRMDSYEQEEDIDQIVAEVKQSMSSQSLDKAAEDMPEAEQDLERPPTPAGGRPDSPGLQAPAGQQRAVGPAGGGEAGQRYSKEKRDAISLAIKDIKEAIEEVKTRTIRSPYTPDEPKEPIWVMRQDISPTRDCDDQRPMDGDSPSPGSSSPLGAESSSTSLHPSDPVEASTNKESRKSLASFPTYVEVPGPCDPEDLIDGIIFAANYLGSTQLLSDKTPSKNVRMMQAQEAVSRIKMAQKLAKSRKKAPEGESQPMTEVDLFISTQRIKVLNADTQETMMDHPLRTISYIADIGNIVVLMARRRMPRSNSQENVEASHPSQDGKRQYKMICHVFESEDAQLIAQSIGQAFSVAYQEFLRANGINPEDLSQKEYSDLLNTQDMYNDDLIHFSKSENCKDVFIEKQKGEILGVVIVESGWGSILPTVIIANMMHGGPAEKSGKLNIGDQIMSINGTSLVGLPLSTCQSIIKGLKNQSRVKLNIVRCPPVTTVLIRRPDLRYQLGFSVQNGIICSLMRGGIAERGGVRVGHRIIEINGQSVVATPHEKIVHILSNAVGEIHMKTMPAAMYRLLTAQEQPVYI

[15] = biological target: T5, Voltage-gated N-type calcium channel alpha-1B subunit/Amyloid beta A4 precursor protein-binding family A member 1; assay type: protein assay; remark: listed apart in the source
[16] = biological target: T4, Small ubiquitin-related modifier 1; experiment: inhibitors of SUMO1 peptide binding, dose response, biochemical, fluorescence polarization, uHTS hits (AID 624382); assay type: functional; settings: read-out: IC50_Mean
CAAX prenyl protease 2 = biological target: T6, CAAX prenyl protease 2 (Saccharomyces cerevisiae S288c, UniProt Q03530); assay type: biochemical
T6 sequence (Q03530 whole entry): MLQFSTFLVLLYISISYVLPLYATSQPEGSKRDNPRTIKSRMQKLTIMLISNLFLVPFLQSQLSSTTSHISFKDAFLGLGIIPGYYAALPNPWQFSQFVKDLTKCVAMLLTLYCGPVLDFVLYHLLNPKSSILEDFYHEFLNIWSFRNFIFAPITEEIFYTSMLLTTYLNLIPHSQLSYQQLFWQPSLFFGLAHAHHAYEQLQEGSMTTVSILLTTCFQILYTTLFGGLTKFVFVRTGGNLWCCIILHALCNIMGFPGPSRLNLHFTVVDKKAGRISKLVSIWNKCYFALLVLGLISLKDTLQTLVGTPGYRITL

Fatty acid synthase = Fatty acid synthase (Homo sapiens, UniProt P49327); experiment: FAS thioesterase domain inhibitors, dose response, biochemical, kinetic fluorescence intensity (AID 624326); assay type: functional;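 further: rate of fluorescence rise from hydrolysis of a fluorogenic O-methyl fluorescein ester substrate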
[17] = biological target: T7, Rac GTPase-activating protein 1 (Homo sapiens, UniProt Q9H0H5); experiment: MgcRacGAP GTPase-activating activity inhibitors, confirmation, biochemical, ADP Hunter fluorescence, primary and confirmatory (AID 624330); assay type: functional
T7 sequence (Q9H0H5 whole entry): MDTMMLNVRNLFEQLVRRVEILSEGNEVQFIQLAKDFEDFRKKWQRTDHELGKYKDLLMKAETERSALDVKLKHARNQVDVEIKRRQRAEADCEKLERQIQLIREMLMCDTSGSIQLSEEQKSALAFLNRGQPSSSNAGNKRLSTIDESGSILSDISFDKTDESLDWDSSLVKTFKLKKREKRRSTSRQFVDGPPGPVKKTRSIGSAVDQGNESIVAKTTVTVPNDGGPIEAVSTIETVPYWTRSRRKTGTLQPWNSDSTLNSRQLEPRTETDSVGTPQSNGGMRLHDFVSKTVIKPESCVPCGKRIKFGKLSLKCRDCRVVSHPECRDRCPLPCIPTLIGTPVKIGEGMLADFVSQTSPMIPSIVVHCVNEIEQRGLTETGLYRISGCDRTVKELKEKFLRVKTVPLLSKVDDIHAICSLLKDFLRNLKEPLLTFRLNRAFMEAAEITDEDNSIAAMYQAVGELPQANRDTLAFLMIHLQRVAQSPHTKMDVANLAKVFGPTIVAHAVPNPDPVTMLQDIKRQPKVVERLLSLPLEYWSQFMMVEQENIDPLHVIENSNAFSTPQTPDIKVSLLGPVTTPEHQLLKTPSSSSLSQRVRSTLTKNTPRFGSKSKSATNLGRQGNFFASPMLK

Large T antigen = Large T antigen (Simian virus 40, UniProt P03070); assay type: functional, Betapolyomavirus macacae;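 further: Confirmatory-stage PubChem screen for compounds that inhibit SV40 T antigen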

Compound: O=C(Cc1ncon1)Nc1ccc(F)c(F)c1F
- EC50 [1]: > 55.7 µM (not active)
- EC50 [2]: > 55.7 µM (not active)

Compound: COc1ccc(-n2nc3c(c2NC(=O)CCl)CSC3)cc1
- EC50 (Protein RecA): > 380 µM (inconclusive)
- IC50 (HEK293 [3]): > 20 µM (inactive)
- AC50 [4]: 13.6 µM (active)
- EC50 [5]: > 20 µM (inactive)
- IC50 (HEK293 [6]): 7.89 µM (active)
- CC50 [7]: 18 µM (active)
- IC50 (HEK293 [8]): > 20 µM (inactive)
- IC50 (HEK293 [9]): 14.8 µM (inactive)
- EC50 (HEK293 [10]): 13.1 µM (active)

Compound: S=c1nc(-c2ccccc2)n(-c2ccccc2)[nH]1
- IC50 [11]: > 100 µM (inactive)
- IC50 [12]: 7.02 µM (active)

Compound: CC(OC(=O)c1ccc(NC(=O)CC#N)cc1)C(=O)Nc1ccc(Oc2ccccc2)cc1 (configuration not stated)
- IC50 [13]: 17.1 µM (active)
- IC50 [14]: 8.36 µM (active)
- IC50 [15]: > 50 µM (inactive)
- IC50 [16]: > 66.6 µM (inactive)

Compound: CC(C)(C)NS(=O)(=O)c1cccc2nsnc12
- EC50 [1]: > 55.7 µM (not active)
- EC50 [2]: > 55.7 µM (not active)

Compound: CC(=O)Nc1ccc(NC(=O)Nc2cc(C)cc(C)c2)cc1
- EC50 [1]: > 55.7 µM (not active)
- EC50 [2]: > 55.7 µM (not active)

Compound: O=S(=O)(c1ccc(-c2csc(Nc3ccc(F)cc3)n2)cc1)N1CCCC1
- AC50 (CAAX prenyl protease 2): 19.8 µM (active)
- IC50 (Fatty acid synthase): 15.2 µM (active)

Compound: Cc1cc(-c2nnc(S)n2/N=C/c2cccs2)[nH]n1
- IC50 [17]: 87.8 µM (active)
- IC50 [11]: > 100 µM (inactive)
- IC50 [12]: 2.9 µM (active)
- IC50 (Large T antigen): 55 µM (active)
